Source: PMC11971462, “Generation and validation of a novel multitarget small molecule in glioblastoma” (Cell Death & Disease, 2025)
Like-named read-outs stand apart in the source and are kept apart here.

System: GNS166 cells

C#CCN(Cc1cc2cc(OCCCN3CCCCC3)ccc2n1S(=O)(=O)c1ccccc1)C(=O)CCCCCCC(=O)NO [DDI] was tested, and the “PCBP3 log2FoldChange” value was 5.457, the “PCDH15 log2FoldChange” value was 3.424 and the “PCDH19 log2FoldChange” value was 2.11. The “PCDHA13 log2FoldChange” value was 3.483, the “PCOLCE2 log2FoldChange” value was 2.03 and the “PCP4L1 log2FoldChange” value was 4.897. The “PCSK1 log2FoldChange” value was 3.118, the “PDE2A log2FoldChange” value was 2.038 and the “PDE3A log2FoldChange” value was 2.332. For the same compound, the “PDE4C log2FoldChange” value was 2.296, the “PDK4 log2FoldChange” value was 2.588 and the “PDX1 log2FoldChange” value was 3.554. For the same compound, the “PLA2G4A log2FoldChange” value was 2.126, the “PLCXD2 log2FoldChange” value was 2.533 and the “PLEK2 log2FoldChange” value was 2.459. The “PLEKHA6 log2FoldChange” value was 2.086, the “PLP1 log2FoldChange” value was 2.506 and the “PPM1N log2FoldChange” value was 2.335. For the same compound, the “PPP1R1B log2FoldChange” value was 4.39, the “PPP1R16B log2FoldChange” value was 3.376 and the “PPP4R4 log2FoldChange” value was 3.111. For the same compound, the “PRR29 log2FoldChange” value was 3.599, the “PRRX2 log2FoldChange” value was 2.314 and the “PRSS3 log2FoldChange” value was 3.932. For the same compound, the “PSD2 log2FoldChange” value was 3.562, the “PSG1 log2FoldChange” value was 5.24 and the “PSG4 log2FoldChange” value was 4.564. The “PSG5 log2FoldChange” value was 4.838, the “PSG9 log2FoldChange” value was 3.658 and the “PTGS1 log2FoldChange” value was 4.0843. For the same compound, the “PTPN5 log2FoldChange” value was 4.236, the “PTPRO log2FoldChange” value was 3.032 and the “PTPRQ log2FoldChange” value was 3.237. For the same compound, the “QPRT log2FoldChange” value was 2.003, the “RAB39A log2FoldChange” value was 2.508 and the “RADX log2FoldChange” value was 2.3792. The “RAET1G log2FoldChange” value was 2.196, the “RAP1GAP log2FoldChange” value was 2.521 and the “RARB log2FoldChange” value was 2.002. For the same compound, the “RASD2 log2FoldChange” value was 3.718, the “RASIP1 log2FoldChange” value was 2.128 and the “RDH12 log2FoldChange” value was 3.657. The “REM1 log2FoldChange” value was 2.662, the “RFPL4A log2FoldChange” value was 5.081 and the “RFTN2 log2FoldChange” value was 4.233. For the same compound, the “RGS9 log2FoldChange” value was 5.175, the “RIMBP2 log2FoldChange” value was 6.452 and the “RIMS4 log2FoldChange” value was 5.004. The “RNF165 log2FoldChange” value was 3.79, the “RUNDC3A log2FoldChange” value was 4.619 and the “S100B log2FoldChange” value was 3.045. For the same compound, the “SAMD11 log2FoldChange” value was 4.391, the “SCEL log2FoldChange” value was 2.003 and the “SCIN log2FoldChange” value was 3.412. The “SCN3A log2FoldChange” value was 2.697, the “SCN4B log2FoldChange” value was 2.757 and the “SCN5A log2FoldChange” value was 2.371. For the same compound, the “SCN9A log2FoldChange” value was 2.594, the “SCUBE1 log2FoldChange” value was 7.641 and the “SEMA3F log2FoldChange” value was 2.777. The “SEMA5A log2FoldChange” value was 2.383, the “SERPING1 log2FoldChange” value was 4.327 and the “SERPINI1 log2FoldChange” value was 3.966. The “SERTM1 log2FoldChange” value was 2.165, the “SGIP1 log2FoldChange” value was 2.3607 and the “SH2D3C log2FoldChange” value was 5.237. The “SHANK1 log2FoldChange” value was 6.717, the “SHF log2FoldChange” value was 2.222 and the “SHISA7 log2FoldChange” value was 4.7. The “SLC4A5 log2FoldChange” value was 2.594, the “SLC6A17 log2FoldChange” value was 2.657 and the “SLC7A2 log2FoldChange” value was 3.19. The “SLC7A10 log2FoldChange” value was 6.012, the “SLC8A2 log2FoldChange” value was 4.387 and the “SLC9A9 log2FoldChange” value was 2.124. The “SLC16A12 log2FoldChange” value was 2.212, the “SLC22A31 log2FoldChange” value was 5.211 and the “SLC25A27 log2FoldChange” value was 5.956. The “SLC44A3 log2FoldChange” value was 2.701, the “SLC45A1 log2FoldChange” value was 2.018 and the “SLIT2 log2FoldChange” value was 2.219. For the same compound, the “SLITRK3 log2FoldChange” value was 2.145, the “SMPDL3B log2FoldChange” value was 3.134 and the “SNCB log2FoldChange” value was 4.848. For the same compound, the “SNX22 log2FoldChange” value was 2.0694, the “SNX32 log2FoldChange” value was 2.323 and the “SOBP log2FoldChange” value was 2.326. The “SPANXC log2FoldChange” value was 2.711, the “SPINK2 log2FoldChange” value was 3.038 and the “SPNS2 log2FoldChange” value was 3.326. The “SSTR2 log2FoldChange” value was 2.236, the “ST3GAL5 log2FoldChange” value was 2.386 and the “ST6GALNAC3 log2FoldChange” value was 2.853. For the same compound, the “STAT4 log2FoldChange” value was 3.605, the “STC1 log2FoldChange” value was 3.854 and the “STMN3 log2FoldChange” value was 2.874. The “STUM log2FoldChange” value was 6.45, the “STX1B log2FoldChange” value was 2.758 and the “STXBP5L log2FoldChange” value was 2.17. The “SYNPO2 log2FoldChange” value was 2.428, the “SYP log2FoldChange” value was 4.307 and the “SYT2 log2FoldChange” value was 5.115. For the same compound, the “SYT5 log2FoldChange” value was 6.667, the “SYT13 log2FoldChange” value was 2.882 and the “SYTL3 log2FoldChange” value was 2.536. For the same compound, the “TAGLN3 log2FoldChange” value was 3.305, the “TBC1D8B log2FoldChange” value was 2.1255 and the “TCEAL5 log2FoldChange” value was 4.062. The “TCIM log2FoldChange” value was 3.258, the “TEC log2FoldChange” value was 4.937 and the “TEKT3 log2FoldChange” value was 2.698. For the same compound, the “TESC log2FoldChange” value was 5.269, the “TEX19 log2FoldChange” value was 3.325 and the “THSD7B log2FoldChange” value was 3.117. For the same compound, the “TJP3 log2FoldChange” value was 5.915, the “TLCD3B log2FoldChange” value was 2.485 and the “TLR9 log2FoldChange” value was 2.809. For the same compound, the “TLX2 log2FoldChange” value was 2.462, the “TMEM47 log2FoldChange” value was 2.003 and the “TMEM74B log2FoldChange” value was 3.647. The “TMEM74 log2FoldChange” value was 4.084, the “TMEM92 log2FoldChange” value was 3.463 and the “TMEM139 log2FoldChange” value was 3.161. The “TMEM145 log2FoldChange” value was 3.464, the “TMEM151B log2FoldChange” value was 3.192 and the “TMEM156 log2FoldChange” value was 3.7131. The “TMOD1 log2FoldChange” value was 2.144, the “TNFSF18 log2FoldChange” value was 2.976 and the “TNNI3 log2FoldChange” value was 7.061. For the same compound, the “TRPC4 log2FoldChange” value was 3.104, the “TTYH1 log2FoldChange” value was 4.78 and the “TUBA3C log2FoldChange” value was 6.251. The “TUSC3 log2FoldChange” value was 3.3304, the “UNC5B log2FoldChange” value was 3.5878 and the “USH1G log2FoldChange” value was 7.012. For the same compound, the “VAV3 log2FoldChange” value was 2.016, the “VGLL2 log2FoldChange” value was 2.35 and the “VTCN1 log2FoldChange” value was 4.133. For the same compound, the “VWA1 log2FoldChange” value was 2.457, the “WNT2B log2FoldChange” value was 2.031 and the “WNT10B log2FoldChange” value was 3.628. The “WSCD1 log2FoldChange” value was 2.865, the “XYLT1 log2FoldChange” value was 5.474 and the “YPEL4 log2FoldChange” value was 2.644. For the same compound, the “ZCCHC12 log2FoldChange” value was 2.836, the “ZDHHC11B log2FoldChange” value was 2.194 and the “ZDHHC22 log2FoldChange” value was 3.089. The “ZFP92 log2FoldChange” value was 2.85, the “ZMYND10 log2FoldChange” value was 2.335 and the “ZNF208 log2FoldChange” value was 3.37. The Direction (gene ALOX15B) was “Up”, the Direction (gene AMBN) was “Up” and the Direction (gene APELA) was “Up”. The Direction (gene ATP2B3) was “Up”, the Direction (gene B3GALT5) was “Up” and the Direction (gene BCL11B) was “Up”. The Direction (gene BRS3) was “Up”, the Direction (gene CA4) was “Up” and the Direction (gene CA7) was “Up”. The Direction (gene CAPNS2) was “Up”, the Direction (gene CCN5) was “Up” and the Direction (gene CD1D) was “Up”. The Direction (gene CDC20B) was “Up”, the Direction (gene CELF4) was “Up” and the Direction (gene CES1) was “Up”. For the same compound, the Direction (gene CFAP52) was “Up”, the Direction (gene CHRNA3) was “Up” and the Direction (gene CRB1) was “Up”. The Direction (gene CSAG1) was “Up”, the Direction (gene CSDC2) was “Up” and the Direction (gene CUX2) was “Up”. For the same compound, the Direction (gene CXorf51A) was “Up”, the Direction (gene DES) was “Up” and the Direction (gene DGKK) was “Up”. For the same compound, the Direction (gene EBF2) was “Up”, the Direction (gene EREG) was “Up” and the Direction (gene FAM9C) was “Up”. The Direction (gene FAM166A) was “Up”, the Direction (gene FER1L5) was “Up” and the Direction (gene FGD3) was “Up”. For the same compound, the Direction (gene FRG2) was “Up”, the Direction (gene FRMD7) was “Up” and the Direction (gene GAS7) was “Up”. For the same compound, the Direction (gene GMNC) was “Up”, the Direction (gene GOLGA8F) was “Up” and the Direction (gene GREM2) was “Up”. The Direction (gene GUCY2F) was “Up”, the Direction (gene HOXC13) was “Up” and the Direction (gene IBSP) was “Up”. For the same compound, the Direction (gene IRAG1) was “Up”, the Direction (gene IRF6) was “Up” and the Direction (gene KANK3) was “Up”. For the same compound, the Direction (gene KCNA1) was “Up”, the Direction (gene KCNH6) was “Up” and the Direction (gene KCNK5) was “Up”. The Direction (gene KCNK15) was “Up”, the Direction (gene KCNN2) was “Up” and the Direction (gene KCNQ1) was “Up”. For the same compound, the Direction (gene LHFPL1) was “Up”, the Direction (gene LHX5) was “Up” and the Direction (gene LOC102723623) was “Up”. For the same compound, the Direction (gene LRRC15) was “Up”, the Direction (gene MAGEA2) was “Up” and the Direction (gene MAGEA2B) was “Up”. The Direction (gene MAGEA6) was “Up”, the Direction (gene MAPK15) was “Up” and the Direction (gene ME1) was “Up”. For the same compound, the Direction (gene MEIOSIN) was “Up”, the Direction (gene MMEL1) was “Up” and the Direction (gene MMP12) was “Up”. For the same compound, the Direction (gene MYL2) was “Up”, the Direction (gene NOS3) was “Up” and the Direction (gene NTRK1) was “Up”. For the same compound, the Direction (gene PAGE4) was “Up”, the Direction (gene PAX2) was “Up” and the Direction (gene PCDHA1) was “Up”. For the same compound, the Direction (gene PITX3) was “Up”, the Direction (gene PLAC1) was “Up” and the Direction (gene PLK5) was “Up”. The Direction (gene PLXDC1) was “Up”, the Direction (gene PNLIPRP3) was “Up” and the Direction (gene POU3F4) was “Up”. The Direction (gene PSG6) was “Up”, the Direction (gene PTPRN) was “Up” and the Direction (gene RPRML) was “Up”. For the same compound, the Direction (gene RSPO1) was “Up”, the Direction (gene SCN4A) was “Up” and the Direction (gene SCRT1) was “Up”. For the same compound, the Direction (gene SH2D3A) was “Up”, the Direction (gene SHH) was “Up” and the Direction (gene SIDT1) was “Up”. For the same compound, the Direction (gene SLC4A9) was “Up”, the Direction (gene SLC11A1) was “Up” and the Direction (gene SLC18A1) was “Up”. For the same compound, the Direction (gene SLC19A3) was “Up”, the Direction (gene SLC35F3) was “Up” and the Direction (gene SLC36A2) was “Up”. For the same compound, the Direction (gene STMN4) was “Up”, the Direction (gene STRC) was “Up” and the Direction (gene SYT1) was “Up”. For the same compound, the Direction (gene TAC3) was “Up”, the Direction (gene TMEM196) was “Up” and the Direction (gene TNIP3) was “Up”. The Direction (gene TSPAN18) was “Up”, the Direction (gene TTC9B) was “Up” and the Direction (gene UGT3A1) was “Up”. For the same compound, the Direction (gene UNC5A) was “Up”, the Direction (gene VWA3B) was “Up” and the Direction (gene ZBBX) was “Up”. For the same compound, the Direction (gene ZNF479) was “Up”.
